Patent US11932634B2 (Gilead Sciences, Inc., priority 2021, dated 2024)

Tests used:
[1] = tested on: Jurkat NFκB-luciferase cells; experiment: Jurkat NFκB-Luciferase Assay; type: cell-based; conditions: Homo sapiens; Jurkat NFκB-luciferase cells activated with anti-CD3 antibody (OKT3), 2.5 hrs at 37° C., One-Glo Ex; geometric mean; read-out: DGK NFKb Luciferase EC50;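 note: bioluminescence read-out normalized to DMSO basal activation and to maximum enhancement at 1 µM compound, rising signal indicating stronger T-cell activation through DGKα inhibition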
[2] = target: T1, human DGKα (Homo sapiens, UniProt P23743); experiment: DGKα Biochemical Activity Assay (ADP-Glo);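 note: recombinant enzyme converting diacylglycerol in lipid micelles with ATP, ADP formed detected by luminescence, IC50 from a four-parameter nonlinear fit, geometric mean across experiments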
T1 construct: purchased Carna Biosciences'; inferred from the same paragraph's 'obtained from Carna Biosciences')
T1 sequence (P23743 whole entry): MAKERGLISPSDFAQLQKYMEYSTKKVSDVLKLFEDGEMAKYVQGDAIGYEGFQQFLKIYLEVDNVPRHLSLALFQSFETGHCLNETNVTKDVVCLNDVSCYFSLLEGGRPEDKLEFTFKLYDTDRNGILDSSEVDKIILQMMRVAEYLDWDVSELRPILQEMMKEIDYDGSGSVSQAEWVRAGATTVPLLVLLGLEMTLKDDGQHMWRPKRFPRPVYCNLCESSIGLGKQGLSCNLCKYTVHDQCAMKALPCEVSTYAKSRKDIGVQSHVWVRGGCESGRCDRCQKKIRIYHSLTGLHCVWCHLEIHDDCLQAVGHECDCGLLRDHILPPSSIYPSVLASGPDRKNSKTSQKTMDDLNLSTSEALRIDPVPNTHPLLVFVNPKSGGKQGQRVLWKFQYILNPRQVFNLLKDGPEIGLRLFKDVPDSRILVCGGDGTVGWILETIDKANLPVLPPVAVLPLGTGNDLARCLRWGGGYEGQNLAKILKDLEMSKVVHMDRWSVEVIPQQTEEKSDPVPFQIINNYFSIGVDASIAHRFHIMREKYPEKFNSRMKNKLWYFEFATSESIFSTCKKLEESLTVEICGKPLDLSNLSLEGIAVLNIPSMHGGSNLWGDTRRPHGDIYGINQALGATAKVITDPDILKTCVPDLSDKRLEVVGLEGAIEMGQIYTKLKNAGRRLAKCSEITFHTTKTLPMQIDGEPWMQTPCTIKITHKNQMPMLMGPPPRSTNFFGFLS

Question: Which results are given for `COC(C)(C)C#Cc1cccc2c1CCCN2c1nc(=O)[nH]c2cccc(F)c12` [Example 52, 5-fluoro-4-[5-(3-methoxy-3-methyl-but-1-ynyl)-3,4-dihydro-2H-quinolin-1-yl]-1H-quinazolin-2-one]?
Answer: EC50 [1]: 0.197 nM; IC50 [2]: 12.9 nM

Question: For `CC(C)(C)C(O)C#Cc1cccc2c1CCCN2c1nc(=O)[nH]c2cccc(F)c12` (stereo not drawn) [Example 53, 5-fluoro-4-[5-(3-hydroxy-4,4-dimethyl-pent-1-ynyl)-3,4-dihydro-2H-quinolin-1-yl]-1H-quinazolin-2-one], which EC50 [1] is on record?
Answer: 2.74 nM

Question: And the IC50 [2]?
Answer: 47.8 nM

Question: Which EC50 [1] does the source give for `CC(C)(O)CC#Cc1cccc2c1CCCN2c1nc(=O)[nH]c2cccc(F)c12` [Example 54, 5-fluoro-4-[5-(4-hydroxy-4-methyl-pent-1-ynyl)-3,4-dihydro-2H-quinolin-1-yl]-M-quinazolin-2-one] here?
Answer: 8.22 nM

Question: What about the IC50 [2] of the same compound?
Answer: 23.6 nM

Question: What does the source list for `[2H]C([2H])([2H])n1c(=O)nc(N2CCCc3c(C#CC(C)(C)O)cccc32)c2c(F)cccc21` [Example 55, 5-fluoro-4-[5-(3-hydroxy-3-methyl-but-1-ynyl)-3,4-dihydro-2H-quinolin-1-yl]-1-(trideuteriomethyl)quinazolin-2-one]?
Answer: EC50 [1]: 4.68 nM; IC50 [2]: 5.82 nM

Question: Which results are given for `CCC(C)(O)C#Cc1cccc2c1CCCN2c1nc(=O)[nH]c2cccc(F)c12` (stereo not drawn) [Example 56, 5-fluoro-4-[5-(3-hydroxy-3-methyl-pent-1-ynyl)-3,4-dihydro-2H-quinolin-1-yl]-1H-quinazolin-2-one]?
Answer: EC50 [1]: 5.16 nM; IC50 [2]: 31.9 nM

Question: Which results are given for `CCC(O)(C#Cc1cccc2c1CCCN2c1nc(=O)[nH]c2cccc(F)c12)CC` [Example 57, 4-[5-(3-ethyl-3-hydroxy-pent-1-ynyl)-3,4-dihydro-2H-quinolin-1-yl]-5-fluoro-1H-quinazolin-2-one]?
Answer: EC50 [1]: 9.99 nM; IC50 [2]: 150 nM

Question: For `O=c1nc(N(CC(F)F)c2cccc(C#CC3(C(F)(F)F)CC3)c2F)c2c(F)cccc2[nH]1` [Example 58, 4-[N-(2,2-difluoroethyl)-2-fluoro-3-[2-[1-(trifluoromethyl)cyclopropyl]ethynyl]anilino]-5-fluoro-1H-quinazolin-2-one], which EC50 [1] is on record?
Answer: 0.285 nM

Question: What about the IC50 [2] of the same compound?
Answer: 72.2 nM

Question: Which EC50 [1] does the source give for `CC(C)(O)C#Cc1cccc(N(CC(F)F)c2nc(=O)[nH]c3cccc(F)c23)c1F` [Example 59, 4-[N-(2,2-difluoroethyl)-2-fluoro-3-(3-hydroxy-3-methyl-but-1-ynyl)anilino]-5-fluoro-M-quinazolin-2-one] here?
Answer: 14.5 nM

Question: And the IC50 [2]?
Answer: 7.63 nM

Question: With `CC(C)(C#Cc1cccc(N(CC(F)F)c2nc(=O)[nH]c3cccc(F)c23)c1F)C(F)(F)F` [Example 60, 4-[N-(2,2-difluoroethyl)-2-fluoro-3-(4,4,4-trifluoro-3,3-dimethyl-but-1-ynyl)anilino]-5-fluoro-1H-quinazolin-2-one] as the compound, how does the EC50 [1] read?
Answer: 2.53 nM

Question: What about the IC50 [2] of the same compound?
Answer: 122 nM

Question: Which results are given for `CC1(C#Cc2cccc(N(CC(F)F)c3nc(=O)[nH]c4cccc(F)c34)c2F)CC1` [Example 61, 4-[N-(2,2-difluoroethyl)-2-fluoro-3-[2-(1-methylcyclopropyl)ethynyl]anilino]-5-fluoro-1H-quinazolin-2-one]?
Answer: EC50 [1]: 1.7 nM; IC50 [2]: 48.2 nM

Question: For `O=c1nc(N(CC(F)F)c2cccc(C#CC3(C(F)F)CC3)c2F)c2c(F)cccc2[nH]1` [Example 62, 4-[N-(2,2-difluoroethyl)-3-[2-[1-(difluoromethyl)cyclopropyl]ethynyl]-2-fluoro-anilino]-5-fluoro-1H-quinazolin-2-one], which EC50 [1] is on record?
Answer: 1.13 nM

Question: What about the IC50 [2] of the same compound?
Answer: 28.2 nM

Question: How did the EC50 [1] turn out when `CC(C)(C#Cc1cccc(N(CC(F)F)c2nc(=O)[nH]c3cccc(F)c23)c1F)C(F)F` [Example 63, 4-[3-(4,4-difluoro-3,3-dimethyl-but-1-ynyl)-N-(2,2-difluoroethyl)-2-fluoro-anilino]-5-fluoro-1H-quinazolin-2-one] was run?
Answer: 1.51 nM

Question: And the IC50 [2]?
Answer: 282 nM

Question: How did the EC50 [1] turn out when `[2H]C([2H])([2H])n1c(=O)nc(N(CC(F)F)c2cc(F)cc(C#CC(C)(C)O)c2)c2c(F)c(F)ccc21` [Example 64, 4-[N-(2,2-difluoroethyl)-3-fluoro-5-(3-hydroxy-3-methyl-but-1-ynyl)anilino]-5,6-difluoro-1-(trideuteriomethyl)quinazolin-2-one] was run?
Answer: 8.99 nM

Question: And the IC50 [2]?
Answer: 10.7 nM

Question: What does the source list for `CC(C)(O)C#Cc1cc(F)cc(N(CC(F)F)c2nc(=O)[nH]c3ccc(F)c(F)c23)c1` [Example 65, 4-[N-(2,2-difluoroethyl)-3-fluoro-5-(3-hydroxy-3-methyl-but-1-ynyl)anilino]-5,6-difluoro-1H-quinazolin-2-one]?
Answer: EC50 [1]: 9.92 nM; IC50 [2]: 13.4 nM

Question: For `[2H]C([2H])([2H])n1c(=O)nc(N(CC(F)F)c2cc(F)cc(C#CC3(C)CCCO3)c2)c2c(F)c(F)ccc21` (stereo not drawn) [Example 66, 4-[N-(2,2-difluoroethyl)-3-fluoro-5-[2-(2-methyltetrahydrofuran-2-yl)ethynyl]anilino]-5,6-difluoro-1-(trideuteriomethyl)quinazolin-2-one], which EC50 [1] is on record?
Answer: 2.85 nM

Question: And the IC50 [2]?
Answer: 3.27 nM

Question: Which results are given for `[2H]C([2H])([2H])n1c(=O)nc(N(CC(F)F)c2cc(F)cc(-c3cnc(C4CC4)cn3)c2)c2c(F)c(F)ccc21` [Example 67, 4-[3-(5-cyclopropylpyrazin-2-yl)-N-(2,2-difluoroethyl)-5-fluoro-anilino]-5,6-difluoro-1-(trideuteriomethyl)quinazolin-2-one]?
Answer: EC50 [1]: 0.527 nM; IC50 [2]: 7.57 nM

Question: `[2H]C([2H])([2H])n1c(=O)nc(N(CC(F)F)c2cc(F)cc(C#CC(C)(C)C#N)c2)c2c(F)c(F)ccc21` [Example 68, 4-[3-[2,2-difluoroethyl-[5,6-difluoro-2-oxo-1-(trideuteriomethyl)quinazolin-4-yl]amino]-5-fluoro-phenyl]-2,2-dimethyl-but-3-ynenitrile] was tested. Which EC50 [1] did it give?
Answer: 2.53 nM

Question: And the IC50 [2]?
Answer: 3.29 nM

Question: Which results are given for `CC(C)(C#N)C#Cc1cc(F)cc(N(CC(F)F)c2nc(=O)[nH]c3ccc(F)c(F)c23)c1` [Example 69, 4-[3-[2,2-difluoroethyl-(5,6-difluoro-2-oxo-1H-quinazolin-4-yl)amino]-5-fluoro-phenyl]-2,2-dimethyl-but-3-ynenitrile]?
Answer: EC50 [1]: 1.8 nM; IC50 [2]: 26.7 nM

Question: Which results are given for `O=c1nc(N2CCCc3c(Br)cncc32)c2c(F)cccc2[nH]1` [Example 70, 4-(5-bromo-3,4-dihydro-1,7-naphthyridin-1(2H)-yl)-5-fluoroquinazolin-2(1H)-one]?
Answer: EC50 [1]: 40.9 nM; IC50 [2]: 170 nM

Question: `O=c1nc(N2CCCc3c(C#CC4(C(F)(F)F)CC4)cncc32)c2c(F)cccc2[nH]1` [Example 71, 5-fluoro-4-(5-((1-(trifluoromethyl)cyclopropyl)ethynyl)-3,4-dihydro-1,7-naphthyridin-1(2H)-yl)quinazolin-2(1H)-one] was tested. Which EC50 [1] did it give?
Answer: 1.43 nM

Question: And the IC50 [2]?
Answer: 18.4 nM

Question: Which results are given for `CC(C)(C#Cc1cncc2c1CCCN2c1nc(=O)[nH]c2cccc(F)c12)C(F)(F)F` [Example 72, 5-fluoro-4-(5-(4,4,4-trifluoro-3,3-dimethylbut-1-yn-1-yl)-3,4-dihydro-1,7-naphthyridin-1(2H)-yl)quinazolin-2(1H)-one]?
Answer: EC50 [1]: 5.71 nM; IC50 [2]: 126 nM

Question: With `CC(F)(F)C1(C#Cc2cncc3c2CCCN3c2nc(=O)[nH]c3cccc(F)c23)CC1` [Example 73, 4-(5-((1-(1,1-difluoroethyl)cyclopropyl)ethynyl)-3,4-dihydro-1,7-naphthyridin-1(2H)-yl)-5-fluoroquinazolin-2(1H)-one] as the compound, how does the EC50 [1] read?
Answer: 1.89 nM

Question: And the IC50 [2]?
Answer: 18.1 nM

Question: How did the EC50 [1] turn out when `O=c1nc(N2CCCc3c(C#CC4(C(F)(F)F)CC4)cncc32)c2c(F)c(F)ccc2[nH]1` [Example 74, 5,6-difluoro-4-(5-((1-(trifluoromethyl)cyclopropyl)ethynyl)-3,4-dihydro-1,7-naphthyridin-1(2H)-yl)quinazolin-2(1H)-one] was run?
Answer: 0.222 nM

Question: And the IC50 [2]?
Answer: 2.83 nM

Question: Which EC50 [1] does the source give for `CC(F)(F)C1(C#Cc2cncc3c2CCCN3c2nc(=O)[nH]c3ccc(F)c(F)c23)CC1` [Example 76, 4-(5-((1-(1,1-difluoroethyl)cyclopropyl)ethynyl)-3,4-dihydro-1,7-naphthyridin-1(2H)-yl)-5,6-difluoroquinazolin-2(1H)-one] here?
Answer: 1.51 nM

Question: And the IC50 [2]?
Answer: 16.1 nM

Question: How did the EC50 [1] turn out when `CC(C)(C#N)C#Cc1cc(N(CC(F)F)c2nc(=O)[nH]c3ccc(F)c(F)c23)ccn1` [Example 77, 4-[4-[2,2-difluoroethyl-(5,6-difluoro-2-oxo-1H-quinazolin-4-yl)amino]-2-pyridyl]-2,2-dimethyl-but-3-ynenitrile] was run?
Answer: 24.2 nM

Question: What about the IC50 [2] of the same compound?
Answer: 14.1 nM

Question: Which results are given for `[2H]C([2H])([2H])n1c(=O)nc(N(CC(F)F)c2ccnc(C#CC(C)(C)C#N)c2)c2c(F)c(F)ccc21` [Example 79, 4-[4-[2,2-difluoroethyl-[5,6-difluoro-2-oxo-1-(trideuteriomethyl)quinazolin-4-yl]amino]-2-pyridyl]-2,2-dimethyl-but-3-ynenitrile]?
Answer: EC50 [1]: 11.3 nM; IC50 [2]: 2.95 nM

Question: Which results are given for `[2H]C([2H])([2H])n1c(=O)nc(N(CC(F)F)c2ccnc(C#CC3(C(F)(F)F)CC3)c2)c2c(F)c(F)ccc21` [Example 80, 4-[2,2-difluoroethyl-[2-[2-[1-(trifluoromethyl)cyclopropyl]ethynyl]-4-pyridyl]amino]-5,6-difluoro-1-(trideuteriomethyl)quinazolin-2-one]?
Answer: EC50 [1]: 1.94 nM; IC50 [2]: 3.75 nM

Question: `CC(C)(O)C#Cc1cccc2c1CCCCN2c1nc(=O)[nH]c2cccc(F)c12` [Example 81, 5-fluoro-4-[6-(3-hydroxy-3-methyl-but-1-ynyl)-2,3,4,5-tetrahydro-1-benzazepin-1-yl]-1H-quinazolin-2-one] was tested. Which EC50 [1] did it give?
Answer: 2.5 nM

Question: And the IC50 [2]?
Answer: 3.6 nM

Question: With `CC(C)(O)C#Cc1cccc2c1OCCCN2c1nc(=O)[nH]c2cccc(F)c12` [Example 82, 5-fluoro-4-[9-(3-hydroxy-3-methyl-but-1-ynyl)-3,4-dihydro-2H-1,5-benzoxazepin-5-yl]-1H-quinazolin-2-one] as the compound, how does the EC50 [1] read?
Answer: 18 nM

Question: What about the IC50 [2] of the same compound?
Answer: 4.42 nM

Question: Which EC50 [1] does the source give for `[2H]C([2H])([2H])n1c(=O)nc(N2CCCOc3c(C#CC(C)(C)O)cccc32)c2c(F)cccc21` [Example 83, 5-fluoro-4-[9-(3-hydroxy-3-methyl-but-1-ynyl)-3,4-dihydro-2H-1,5-benzoxazepin-5-yl]-1-(trideuteriomethyl)quinazolin-2-one] here?
Answer: 16.2 nM

Question: What about the IC50 [2] of the same compound?
Answer: 13.1 nM
